Assay results taken from patent publication US20250011365A1, “ECHINOCANDIN-BASED DRUG, AND PREPARATION METHOD THEREFOR AND USE THEREOF” (Shenzhen Sungening Biological Co., Ltd, priority 2023, published 2025).
In brackets after ≈: the same amount, converted by molar mass. Numbered stars: 1 amine (or outer) side, 2 acyl side, 3 side chain; on linkers, the order of the positions; unused ones are H or OH. Bridge positions count the residues as written; N and C are the ends. Square brackets hold non-standard residues; d marks the D form. Peptide text beside a SMILES is read from it. * marks the point of attachment. Orn(4R-OH,5R-OCH2CH2NMe3+) = C[N+](C)(C)CCO[C@@H](N[*:3])[C@H](O)C[C@H](N[*:1])C(=O)[*:2]; hTyr(3S-OH,4S-OH) = N[C@H](C(=O)O)[C@H](O)[C@@H](O)c1ccc(O)cc1; X2 = CCCCCOc1ccc(C#Cc2ccc3cc(C(=O)*)ccc3c2)c(F)c1F; Pro(3S-OH,4S-Me) = C[C@H]1CN[C@H](C(=O)O)[C@H]1O; Hyp = O=C(O)[C@@H]1C[C@@H](O)CN1

Assays:
Type in all cases: cell-based
[1] = test system: Cryptococcus neoformans ATCC 208821; experiment: MIC assay, yeast-type fungi (CLSI M27-A3); conditions: ATCC208821, 24 h, 35° C.
[2] = test system: Candida albicans ATCC 76485; experiment: MIC assay, Candida standard strain (CLSI M27-A3); conditions: ATCC76485, 24 h, 35° C.
Protocol: (§1) After gradient dilution of test compounds, an MIC assay was performed on a Candida standard strain, and an MEC assay was performed on an Aspergillus standard strain. […] A cryopreserved strain was passaged at least 2 times. A single colony was picked and resuspended in a physiological saline or sterile water tube, and the tube was subjected to vortex shaking. The Candida suspension was adjusted to 0.5 McF (1×10^6-5×10^6 CFU/mL) at a wavelength of 530 nm by using a spectrophotometer. After being diluted 50 times with physiological saline, the Candida suspension was diluted 20 times with 1×RPMI 1640 broth (1×10^3-5×10^3 CFU/mL). 10 μL of the diluted Candida suspension was coated on an SDA plate for colony counting, with a range of about 10-50 single colonies. After a prepared drug sensitive plate was completely dissolved at room temperature, the Candida suspension was added to the 96-well plate by using a multi-channel pipettor at 100 μL/well. At this time, the concentration of Candida in each well should be 0.5×10^3-2.5×10^3 CFU/mL. A yeast-type fungus assay plate was placed in an incubator, and incubated for 24 h at 35° C. and 85% humidity, and then the MIC values were read. For echinocandin-based drugs, Aspergillus was incubated for 21-26 h at 28° C., and then the MEC results were read. Yeast-type fungi: A 96-well plate was attached with a disposable parafilm, shaken for uniformly mixing, and observed with naked eyes by using a plate reader microscope. […] Pictures were taken and saved by using an automated plate reader.

[3] = test system: Candida albicans ATCC MYA-427; experiment: MIC assay, Candida standard strain (CLSI M27-A3); conditions: 24 h, 35° C.
Protocol: as §1

[4] = test system: Candida albicans ATCC 64124; experiment: MIC assay, Candida standard strain (CLSI M27-A3); conditions: ATCC64124, 24 h, 35° C.
Protocol: as §1

[5] = test system: Candida albicans ATCC MYA-574; experiment: MIC assay, Candida standard strain (CLSI M27-A3); conditions: 24 h, 35° C.
Protocol: as §1

[6] = test system: Candida albicans CMCC 98001; experiment: MIC assay, Candida standard strain (CLSI M27-A3); conditions: CMCC98001, 24 h, 35° C.
Protocol: as §1

C. tropicalis ATCC 750 = experiment: MIC assay, Candida standard strain (CLSI M27-A3); conditions: ATCC750, 24 h, 35° C.
Protocol: as §1

[7] = test system: Candida albicans ATCC 14053; experiment: MIC assay, Candida standard strain (CLSI M27-A3); conditions: ATCC14053, 24 h, 35° C.
Protocol: as §1

[8] = test system: Candida albicans CICC 1943; experiment: MIC assay, Candida standard strain (CLSI M27-A3); conditions: CICC1943, 24 h, 35° C.
Protocol: as §1

[9] = test system: Candida albicans ATCC 18804; experiment: MIC assay, Candida standard strain (CLSI M27-A3); conditions: ATCC18804, 24 h, 35° C.
Protocol: as §1

[10] = test system: C. parapsilosis ATCC 22019; experiment: MIC assay, Candida standard strain (CLSI M27-A3); conditions: Lodderomyces parapsilosis, ATCC22019; C. parapsilosis ATCC 22019 (quality-control strain); 24 h, 35° C.
Protocol: as §1

[11] = test system: Candida albicans ATCC MYA-1023; experiment: MIC assay, Candida standard strain (CLSI M27-A3); conditions: 24 h, 35° C.
Protocol: as §1

[12] = test system: Candida albicans ATCC MYA-2876; experiment: MIC assay, Candida standard strain (CLSI M27-A3); conditions: 24 h, 35° C.
Protocol: as §1

[13] = test system: Candida albicans ATCC 10231; experiment: MIC assay, Candida standard strain (CLSI M27-A3); conditions: ATCC10231, 24 h, 35° C., >50% growth inhibition
Protocol: as §1

C. glabrata ATCC 15126 = experiment: MIC assay, Candida standard strain (CLSI M27-A3); conditions: Nakaseomyces glabratus, ATCC15126, 24 h, 35° C.
Protocol: as §1

C. krusei ATCC 6258 = experiment: MIC assay, Candida standard strain (CLSI M27-A3); conditions: Pichia kudriavzevii, ATCC6258; C. krusei ATCC 6258 (quality-control strain); 24 h, 35° C.
Protocol: as §1

[14] = test system: Candida albicans ATCC 90028; experiment: MIC assay, Candida standard strain (CLSI M27-A3); conditions: ATCC90028, 24 h, 35° C., >50% growth inhibition
Protocol: as §1

[15] = test system: Candida albicans ATCC 90029; experiment: MIC assay, Candida standard strain (CLSI M27-A3); conditions: ATCC90029, 24 h, 35° C.
Protocol: as §1

[16] = test system: Candida albicans ATCC MYA-4788; experiment: MIC assay, Candida standard strain (CLSI M27-A3); conditions: 24 h, 35° C.
Protocol: as §1

[17] = test system: Aspergillus fumigatus ATCC 204305; experiment: MEC assay, Aspergillus standard strain (CLSI M38-A2); conditions: 21-26 h, 28° C.
Protocol: After gradient dilution of test compounds, an MIC assay was performed on a Candida standard strain, and an MEC assay was performed on an Aspergillus standard strain.
The colonies on the plate were covered with 0.85% physiological saline (1 mL) or sterile water (polysorbate 20 was added to a final concentration of 0.1%-0.01%). […] The resuspension of spore hyphae was transferred to a sterile test tube, and left to stand for 3-5 min to precipitate heavier particles. The homogeneous suspension on the upper layer was transferred to a new sterile test tube, and the tube was capped closely, and subjected to vortex shaking for 15 s (note: the suspension can produce an aerosol when the cap is reopened). The concentration of the suspension was adjusted to an OD value of 0.09-0.13 at 530 nm by using a spectrophotometer. […] Within 2 h after dilution, 100 μL of the diluted suspension was added to each well in a 96-well plate (the concentration of spores in the final drug sensitive plate should be 0.4×10^4-5×10^4 CFU/mL).
In order to accurately determine MEC value, vortex oscillation should not be allowed before reading the plate.

[18] = test system: Pichia guilliermondii ATCC 6260; experiment: MIC assay, yeast-type fungi (CLSI M27-A3); conditions: Meyerozyma guilliermondii, ATCC6260, 24 h, 35° C.
Protocol: as §1

SMILES | MIC [1] | MIC [2] | MIC [3] | MIC [4] | MIC [5] | MIC [6] | MIC (C. tropicalis ATCC 750) | MIC [7] | MIC [8] | MIC [9] | MIC [10] | MIC [11] | MIC [12] | MIC [13] | MIC (C. glabrata ATCC 15126) | MIC (C. krusei ATCC 6258) | MIC [14] | MIC [15] | MIC [16] | MEC [17] | further results
CC[C@H](C)C[C@H](C)CCCCCCCCC(=O)N[C@H]1C[C@@H](O)[C@@H](NCCN)NC(=O)[C@@H]2[C@@H](O)CCN2C(=O)[C@H]([C@H](O)CCN)NC(=O)[C@H]([C@H](O)[C@@H](O)c2ccc(O)cc2)NC(=O)[C@@H]2C[C@@H](O)CN2C(=O)[C@H]([C@@H](C)O)NC1=O [Caspofungin, reference compound] | 16 µg/mL (≈ 14.6 µM) | 0.06 µg/mL (≈ 0.0549 µM) | 0.12 µg/mL (≈ 0.11 µM) | 0.12 µg/mL (≈ 0.11 µM) | ≤ 0.015 µg/mL | 0.06 µg/mL (≈ 0.0549 µM) | 0.06 µg/mL (≈ 0.0549 µM) | 0.03 µg/mL (≈ 0.0274 µM) | 0.06 µg/mL (≈ 0.0549 µM) | 0.06 µg/mL (≈ 0.0549 µM) | 0.5 µg/mL (≈ 0.457 µM) | 0.06 µg/mL (≈ 0.0549 µM) | 0.06 µg/mL (≈ 0.0549 µM) | 0.12 µg/mL (≈ 0.11 µM) | 0.12 µg/mL (≈ 0.11 µM) | 0.25 µg/mL (≈ 0.229 µM) | 0.12 µg/mL (≈ 0.11 µM) | 0.06 µg/mL (≈ 0.0549 µM) | 0.06 µg/mL (≈ 0.0549 µM) | 0.25 µg/mL | MIC [18]: 0.12 µg/mL (≈ 0.11 µM)
CCCCCOc1ccc(C#Cc2ccc3cc(C(=O)N[C@H]4C[C@@H](O)[C@@H](OCC[N+](C)(C)C)NC(=O)[C@@H]5[C@@H](O)[C@@H](C)CN5C(=O)[C@H]([C@@H](C)O)NC(=O)[C@H]([C@H](O)[C@@H](O)c5ccc(O)cc5)NC(=O)[C@@H]5C[C@@H](O)CN5C(=O)[C@H]([C@@H](C)O)NC4=O)ccc3c2)c(F)c1F [Example 8] (X2-[Orn(4R-OH,5R-OCH2CH2NMe3+)]T[Hyp][hTyr(3S-OH,4S-OH)]T[Pro(3S-OH,4S-Me)]; lactam 1-C) | 8 µg/mL | ≤ 0.015 µg/mL | 0.03 µg/mL | ≤ 0.015 µg/mL | ≤ 0.015 µg/mL | ≤ 0.015 µg/mL | ≤ 0.015 µg/mL | ≤ 0.015 µg/mL | 0.03 µg/mL | ≤ 0.015 µg/mL | 0.5 µg/mL | ≤ 0.015 µg/mL | ≤ 0.015 µg/mL | 0.03 µg/mL | 0.06 µg/mL | 0.12 µg/mL | ≤ 0.015 µg/mL | ≤ 0.015 µg/mL | ≤ 0.015 µg/mL | 0.03 µg/mL | MIC [18]: 0.25 µg/mL
